Reference: patent publication US20120029190A1, “COMPOUNDS FOR TREATING DISORDERS MEDIATED BY METABOTROPIC GLUTAMATE RECEPTOR 5, AND METHODS OF USE THEREOF” (priority 2009, published 2012)

These compounds were tested against T1, human recombinant mGluR5 receptor (Homo sapiens, UniProt P41594) (assay: mGluR5 in vitro functional assay (aequorin cell line, inhibition of glutamate EC80 response)). Settings: not given.
T1 construct: expressed in transfected cells; expression induced with doxycycline
T1 sequence (P41594 21-1212): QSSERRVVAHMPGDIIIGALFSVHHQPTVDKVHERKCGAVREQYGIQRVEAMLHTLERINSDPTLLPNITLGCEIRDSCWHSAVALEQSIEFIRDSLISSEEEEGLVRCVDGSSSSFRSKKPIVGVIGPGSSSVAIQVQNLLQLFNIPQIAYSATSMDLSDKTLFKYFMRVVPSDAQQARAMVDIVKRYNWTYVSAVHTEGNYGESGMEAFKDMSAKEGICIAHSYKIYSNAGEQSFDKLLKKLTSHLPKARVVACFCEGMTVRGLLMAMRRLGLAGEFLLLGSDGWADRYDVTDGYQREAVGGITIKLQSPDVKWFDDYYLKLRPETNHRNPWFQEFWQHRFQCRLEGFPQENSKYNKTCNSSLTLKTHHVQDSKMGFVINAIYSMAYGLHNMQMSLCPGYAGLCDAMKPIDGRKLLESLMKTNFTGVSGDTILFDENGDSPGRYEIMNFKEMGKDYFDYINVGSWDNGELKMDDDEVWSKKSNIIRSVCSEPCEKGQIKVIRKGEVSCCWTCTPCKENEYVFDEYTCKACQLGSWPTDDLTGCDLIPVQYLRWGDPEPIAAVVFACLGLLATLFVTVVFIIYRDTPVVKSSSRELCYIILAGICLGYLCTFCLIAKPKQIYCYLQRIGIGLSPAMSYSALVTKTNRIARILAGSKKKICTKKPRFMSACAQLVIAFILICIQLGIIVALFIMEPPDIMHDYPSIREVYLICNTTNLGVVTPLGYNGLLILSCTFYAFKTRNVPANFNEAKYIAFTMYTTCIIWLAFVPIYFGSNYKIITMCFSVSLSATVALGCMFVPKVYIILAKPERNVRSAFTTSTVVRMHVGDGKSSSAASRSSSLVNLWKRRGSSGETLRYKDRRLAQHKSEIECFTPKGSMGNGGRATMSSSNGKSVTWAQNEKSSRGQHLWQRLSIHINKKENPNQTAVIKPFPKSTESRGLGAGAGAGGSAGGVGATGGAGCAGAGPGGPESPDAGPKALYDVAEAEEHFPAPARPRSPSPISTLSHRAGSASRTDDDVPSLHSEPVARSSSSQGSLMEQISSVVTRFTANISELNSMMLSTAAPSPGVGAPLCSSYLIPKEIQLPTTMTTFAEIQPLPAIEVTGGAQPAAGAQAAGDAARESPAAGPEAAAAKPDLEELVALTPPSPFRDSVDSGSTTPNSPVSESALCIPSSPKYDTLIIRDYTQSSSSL
Type: cell-based
Method: B. mGluR5 In Vitro Functional Assay
The functional assay utilized an aequorin cell line expressing human recombinant mGluR5 receptor, an inducible cell line that expresses the human receptor under the control of a promoter induced by doxycycline.
mGluR5 cells in mid-log phase, grown 18 hours prior to the test in antibiotic-free media supplemented with doxycycline (600 ng/mL), were detached by gentle flushing with PBS-EDTA ([…]). The cells were recovered by centrifugation and resuspended in assay buffer (HBSS, […], 3 ug/mL glutamate-pyruvate transaminase, […] MEM sodium pyruvate, 0.1% BSA protease-free). Cells were incubated at room temperature for at least 4 hours with Coelenterazine h (Molecular Probes). The cell suspension (60 uL) containing the test compound was mixed with a solution of reference agonist (30 uL) at its EC80, following an incubation of 3 min. after the first injection. The resulting emission of light was recorded using a Hamamatsu Functional Drug Screening System 6000 (FDSS 6000). To standardize the emission of recorded light (determination of the “100% signal’) across plates and across different experiments, some of the wells contained 100 uM digitonin or a saturating concentration (20 mM) of ATP. Plates also contained the reference agonist (glutamate) at a concentration equivalent to the EC80 obtained during assay validation. Percentages of inhibition were calculated on the basis of the activation induced by the reference agonist at a concentration equal to the EC80. Dose-response data were analyzed with XLFit (IDBS) software using nonlinear regression applied to a sigmoidal dose-response model.
In the case of `N#Cc1ccc(N2CCc3oc(-c4ccccn4)nc3C2)cc1F` [Compound 36, 2-Fluoro-4-(2-(pyridin-2-yl)-6,7-dihydrooxazolo[4,5-c]pyridin-5(4H)-yl)benzonitrile], the IC50 is reported as greater than 10 µM.

Same assay, conditions: Table 1; aequorin cell line expressing human mGluR5, reference agonist glutamate at EC80; obtained in duplicate; read-out: IC50
`N#Cc1cc(F)cc(CN2CCc3oc(-c4ccccn4)nc3C2)c1` [Compound 35, 3-Fluoro-5-((2-(pyridin-2-yl)-6,7-dihydrooxazolo-[4,5-c]pyridin-5(4H)-yl)methyl)benzonitrile] gave an IC50 of less than 10 µM. Compound `N#Cc1cccnc1N1CCc2oc(-c3ccccc3)nc2C1` [Compound 37, 2-(2-Phenyl-6,7-dihydrooxazolo[4,5-c]pyridin-5(4H)-yl)nicotinonitrile] has an IC50 of less than 10 µM. With `c1ccc(-c2nc3c(o2)CCN(c2ccccn2)C3)cc1` [Compound 38, 2-Phenyl-5-(pyridin-2-yl)-4,5,6,7-tetrahydrooxazolo-[4,5-c]pyridine] the IC50 was less than 10 µM. Work on `N#Cc1cccnc1N1CCc2oc(-c3cccc(Cl)c3)nc2C1` [Compound 39, 2-(2-(3-Chlorophenyl)-6,7-dihydrooxazolo[4,5-c]pyridin-5(4H)-yl)nicotinonitrile] yielded an IC50 of less than 1 µM. `Clc1cccc(-c2nc3c(o2)CCN(c2ccccn2)C3)c1` [Compound 40, 2-(3-Chlorophenyl)-5-(pyridin-2-yl)-4,5,6,7-tetrahydrooxazolo[4,5-c]pyridine] was tested, and the IC50 was less than 1 µM. `Clc1cccc(-c2nc3c(o2)CCN(c2cnccn2)C3)c1` [Compound 41, 2-(3-Chlorophenyl)-5-(pyrazin-2-yl)-4,5,6,7-tetrahydrooxazolo[4,5-c]pyridine] gave an IC50 of less than 1 µM. In the case of `COc1ccc(-c2nc3c(o2)CCN(c2cnccn2)C3)cc1` [Compound 42, 2-(4-Methoxyphenyl)-5-(pyrazin-2-yl)-4,5,6,7-tetrahydrooxazolo[4,5-c]pyridine], the IC50 is reported as greater than 10 µM. For `COc1ccc(-c2nc3c(o2)CCN(c2ncccc2C#N)C3)cc1` [Compound 43, 2-(2-(4-Methoxyphenyl)-6,7-dihydrooxazolo[4,5-c]pyridin-5(4H)-yl)nicotinonitrile], the IC50 was greater than 10 µM. Compound `N#Cc1cccnc1N1CCc2oc(-c3ccc(C(F)(F)F)cc3)nc2C1` [Compound 44, 2-(2-(4-(Trifluoromethyl)phenyl)-6,7-dihydrooxazolo[4,5-c]pyridin-5(4H)-yl)nicotinonitrile] has an IC50 greater than 10 µM. `FC(F)(F)c1ccc(-c2nc3c(o2)CCN(c2cnccn2)C3)cc1` [Compound 45, 5-(Pyrazin-2-yl)-2-(4-(trifluoromethyl)phenyl)-4,5,6,7-tetrahydrooxazolo[4,5-c]pyridine] showed an IC50 greater than 10 µM. `N#Cc1cccnc1N1CCc2oc(-c3ccc(F)cc3)nc2C1` [Compound 46, 2-(2-(4-Fluorophenyl)-6,7-dihydrooxazolo[4,5-c]pyridin-5(4H)-yl)nicotinonitrile] showed an IC50 greater than 10 µM. In the case of `Fc1ccc(-c2nc3c(o2)CCN(c2cnccn2)C3)cc1` [Compound 47, 2-(4-Fluorophenyl)-5-(pyrazin-2-yl)-4,5,6,7-tetrahydrooxazolo[4,5-c]pyridine], the IC50 is reported as less than 10 µM. For `Fc1ccc(-c2nc3c(o2)CCN(c2ccccn2)C3)cc1` [Compound 48, 2-(4-Fluorophenyl)-5-(pyridin-2-yl)-4,5,6,7-tetrahydrooxazolo[4,5-c]pyridine], the IC50 was less than 10 µM. In the case of `c1ccc(-c2nc3c(o2)CCN(c2cnccn2)C3)cc1` [Compound 49, 2-Phenyl-5-(pyrazin-2-yl)-4,5,6,7-tetrahydrooxazolo[4,5-c]pyridine], the IC50 is reported as less than 10 µM. For `Clc1cccc(-c2nc3c(o2)CCN(Cc2ccccn2)C3)c1` [Compound 50, 2-(3-Chlorophenyl)-5-(pyridin-2-ylmethyl)-4,5,6,7-tetrahydrooxazolo[4,5-c]pyridine], the IC50 was less than 10 µM. `Clc1cccc(-c2nc3c(o2)CCN(c2cccnc2)C3)c1` [Compound 51, 2-(3-Chlorophenyl)-5-(pyridin-3-yl)-4,5,6,7-tetrahydrooxazolo[4,5-c]pyridine] gave an IC50 of less than 1 µM. `N#Cc1nccnc1N1CCc2oc(-c3ccccc3)nc2C1` [Compound 52, 3-(2-Phenyl-6,7-dihydrooxazolo[4,5-c]pyridin-5(4H)-yl)pyrazine-2-carbonitrile] showed an IC50 of less than 10 µM. For `N#Cc1nccnc1N1CCc2oc(-c3cccc(Cl)c3)nc2C1` [Compound 53, 3-(2-(3-Chlorophenyl)-6,7-dihydrooxazolo[4,5-c]pyridin-5(4H)-yl)pyrazine-2-carbonitrile], the IC50 was less than 1 µM. Work on `O=C(c1ccc(F)cc1)N1CCc2oc(-c3ccc(F)cc3)nc2C1` [Compound 54, (4-Fluorophenyl)(2-(4-fluorophenyl)-6,7-dihydrooxazolo[4,5-c]pyridin-5(4H)-yl)methanone] yielded an IC50 of less than 10 µM. Compound `c1ccc(-c2nc3c(o2)CCN(c2nccs2)C3)nc1` [Compound 55, 2-(Pyridin-2-yl)-5-(thiazol-2-yl)-4,5,6,7-tetrahydrooxazolo[4,5-c]pyridine] has an IC50 of less than 1 µM. `COc1cc(F)cc(N2CCc3oc(-c4ccccn4)nc3C2)c1` [Compound 56, 5-(3-Fluoro-5-methoxyphenyl)-2-(pyridin-2-yl)-4,5,6,7-tetrahydrooxazolo[4,5-c]pyridine] was tested, and the IC50 was less than 1 µM. `N#Cc1cc(N2CCc3oc(-c4ccccn4)nc3C2)ccc1F` [Compound 57, 2-Fluoro-5-(2-(pyridin-2-yl)-6,7-dihydrooxazolo[4,5-c]pyridin-5(4H)-yl)benzonitrile] was tested, and the IC50 was less than 10 µM. In the case of `Cc1cccc(-c2nc3c(o2)CN(c2ccccn2)CC3)c1` [Compound 58, 5-(Pyridin-2-yl)-2-m-tolyl-4,5,6,7-tetrahydrooxazolo[5,4-c]pyridine], the IC50 is reported as less than 1 µM. Work on `Cc1cccc(-c2nc3c(o2)CN(c2ncccc2C#N)CC3)c1` [Compound 59, 2-(2-m-Tolyl-6,7-dihydrooxazolo[5,4-c]pyridin-5(4H)-yl)nicotinonitrile] yielded an IC50 of less than 1 µM. `Cc1cccc(-c2nc3c(o2)CCN(c2ccccn2)C3)c1` [Compound 60, 5-(Pyridin-2-yl)-2-m-tolyl-4,5,6,7-tetrahydrooxazolo-[4,5-c]pyridine] was tested, and the IC50 was less than 1 µM. Work on `Cc1cccc(-c2nc3c(o2)CCN(c2ncccc2C#N)C3)c1` [Compound 61, 2-(2-m-Tolyl-6,7-dihydrooxazolo[4,5-c]pyridin-5(4H)-yl)nicotinonitrile] yielded an IC50 of less than 1 µM. `N#Cc1cccc(-c2nc3c(o2)CCN(c2ccccn2)C3)c1` [Compound 62, 3-(5-(Pyridin-2-yl)-4,5,6,7-tetrahydrooxazolo[4,5-c]pyridin-2-yl)benzonitrile] gave an IC50 greater than 10 µM. `N#Cc1cccc(-c2nc3c(o2)CCN(c2ncccc2C#N)C3)c1` [Compound 63, 2-(2-(3-Cyanophenyl)-6,7-dihydrooxazolo[4,5-c]pyridin-5(4H)-yl)nicotinonitrile] showed an IC50 of less than 10 µM. `N#Cc1cccc(-c2nc3c(o2)CCN(c2cccc(C#N)c2)C3)c1` [Compound 64, 3,3′-(6,7-Dihydrooxazolo[4,5-c]pyridine-2,5(4H)-diyl)dibenzonitrile] was tested, and the IC50 was less than 1 µM. `N#Cc1cccc(-c2nc3c(o2)CN(c2ccccn2)CC3)c1` [Compound 65, 3-(5-(Pyridin-2-yl)-4,5,6,7-tetrahydrooxazolo[5,4-c]pyridin-2-yl)benzonitrile] was tested, and the IC50 was greater than 10 µM. Work on `N#Cc1cccc(-c2nc3c(o2)CN(c2ncccc2C#N)CC3)c1` [Compound 66, 2-(2-(3-Cyanophenyl)-6,7-dihydrooxazolo[5,4-c]pyridin-5(4H)-yl)nicotinonitrile] yielded an IC50 of less than 10 µM. With `N#Cc1cccc(-c2nc3c(o2)CN(c2cccc(C#N)c2)CC3)c1` [Compound 67, 3,3′-(6,7-Dihydrooxazolo[5,4-c]pyridine-2,5(4H)-diyl)dibenzonitrile] the IC50 was less than 1 µM. In the case of `Clc1ccccc1-c1nc2c(o1)CN(c1ccccn1)CC2` [Compound 68, 2-(2-Chlorophenyl)-5-(pyridin-2-yl)-4,5,6,7-tetrahydrooxazolo[5,4-c]pyridine], the IC50 is reported as less than 10 µM. In the case of `N#Cc1cccnc1N1CCc2nc(-c3ccccc3Cl)oc2C1` [Compound 69, 2-(2-(2-Chlorophenyl)-6,7-dihydrooxazolo[5,4-c]pyridin-5(4H)-yl)nicotinonitrile], the IC50 is reported as less than 10 µM. For `Clc1ccc(-c2nc3c(o2)CN(c2ccccn2)CC3)cc1` [Compound 70, 2-(4-Chlorophenyl)-5-(pyridin-2-yl)-4,5,6,7-tetrahydrooxazolo[5,4-c]pyridine], the IC50 was less than 1 µM. In the case of `COc1cccc(-c2nc3c(o2)CN(c2ccccn2)CC3)c1` [Compound 71, 2-(3-Methoxyphenyl)-5-(pyridin-2-yl)-4,5,6,7-tetrahydrooxazolo[5,4-c]pyridine], the IC50 is reported as less than 10 µM. For `COc1cccc(-c2nc3c(o2)CN(c2ncccc2C#N)CC3)c1` [Compound 72, 2-(2-(3-Methoxyphenyl)-6,7-dihydrooxazolo[5,4-c]pyridin-5(4H)-yl)nicotinonitrile], the IC50 was less than 1 µM. For `COc1cccc(-c2nc3c(o2)CCN(c2ncccc2C#N)C3)c1` [Compound 73, 2-(2-(3-Methoxyphenyl)-6,7-dihydrooxazolo[4,5-c]pyridin-5(4H)-yl)nicotinonitrile], the IC50 was greater than 10 µM. With `Cc1ccc(-c2nc3c(o2)CN(c2cccc(C#N)c2)CC3)nc1` [Compound 74, 3-(2-(5-Methylpyridin-2-yl)-6,7-dihydrooxazolo[5,4-c]pyridin-5(4H)-yl)benzonitrile] the IC50 was less than 10 µM.
